Target: T1, rChAT (recombinant choline acetyltransferase) (Homo sapiens, UniProt P28329)
T1 sequence (P28329 119-748): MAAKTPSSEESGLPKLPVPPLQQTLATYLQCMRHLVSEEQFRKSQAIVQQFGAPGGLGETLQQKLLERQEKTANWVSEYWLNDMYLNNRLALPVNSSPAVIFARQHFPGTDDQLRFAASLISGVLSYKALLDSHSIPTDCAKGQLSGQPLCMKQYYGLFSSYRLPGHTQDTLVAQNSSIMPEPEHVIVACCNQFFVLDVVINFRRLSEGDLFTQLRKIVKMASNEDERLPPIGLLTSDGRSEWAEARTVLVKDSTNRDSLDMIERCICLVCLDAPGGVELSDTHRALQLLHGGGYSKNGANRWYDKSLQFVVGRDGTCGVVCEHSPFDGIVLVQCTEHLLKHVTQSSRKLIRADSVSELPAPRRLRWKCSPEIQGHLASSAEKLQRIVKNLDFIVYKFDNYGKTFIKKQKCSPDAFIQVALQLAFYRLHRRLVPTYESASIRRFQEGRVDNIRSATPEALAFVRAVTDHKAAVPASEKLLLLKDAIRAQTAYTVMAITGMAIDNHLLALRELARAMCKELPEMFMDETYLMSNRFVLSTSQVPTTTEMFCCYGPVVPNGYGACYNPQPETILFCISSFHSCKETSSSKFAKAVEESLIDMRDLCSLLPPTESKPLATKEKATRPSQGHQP
Test: colorimetric ChAT assay
Format: biochemical

Q: With C[N+](C)(C)CCC(=O)c1cccc2ccccc12 [alpha-NETA] as the compound, how does the IC50 read?
A: The IC50 was 148 nM.
